The values that follow come from patent US11395847B2, “Acylated GLP-1/GLP-2 dual agonists” (Zealand Pharma A/S, priority 2016, dated 2022).

Like-named read-outs stand apart in the source and are kept apart here. *1 amine or outer side, *2 acyl side, *3 side chain or, on linkers, in order; H or OH if unused. Where a SMILES comes first, the peptide text is derived from it. Side-chain parts run from the residue outwards. [ ]: non-standard residue; d: D form. The star is where a group is joined. C20 diacid = O=C(O)CCCCCCCCCCCCCCCCCCC(=O)*; γGlu = O=C(O)[C@H](CCC(=O)[*:2])N[*:1]; AEEA = NCCOCCOCC(=O)O; Aib = CC(C)(N)C(=O)O

One series concerns the target T1, human GLP-2 receptor (Homo sapiens, UniProt O95838, D470N).
T1 construct: expressed in transfected cells
T1 sequence (O95838 1-553 D470N): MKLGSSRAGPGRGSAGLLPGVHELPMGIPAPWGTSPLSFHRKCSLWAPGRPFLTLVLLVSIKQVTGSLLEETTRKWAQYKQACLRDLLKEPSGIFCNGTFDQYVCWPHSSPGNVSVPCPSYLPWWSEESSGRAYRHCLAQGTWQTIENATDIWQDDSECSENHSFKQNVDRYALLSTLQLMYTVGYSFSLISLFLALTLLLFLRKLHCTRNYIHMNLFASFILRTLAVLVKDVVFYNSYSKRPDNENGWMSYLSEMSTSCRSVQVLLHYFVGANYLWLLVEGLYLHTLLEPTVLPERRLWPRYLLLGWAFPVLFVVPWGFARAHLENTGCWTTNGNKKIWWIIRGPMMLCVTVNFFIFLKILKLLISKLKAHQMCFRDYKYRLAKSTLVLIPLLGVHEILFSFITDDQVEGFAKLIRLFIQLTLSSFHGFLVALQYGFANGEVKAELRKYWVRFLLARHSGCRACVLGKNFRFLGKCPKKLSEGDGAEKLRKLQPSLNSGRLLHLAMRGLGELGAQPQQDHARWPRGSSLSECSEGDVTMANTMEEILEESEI
In words: GLP-2 receptor potency assay (cAMP ALPHASCREEN, HEK293 cells stably expressing GLP-2 R). In kind it is cell-based. The settings on record: cAMP response, HEK293 cells expressing human GLP-2 R; read-out: EC50 GLP-2. The source says: One useful in vitro assay for measuring GLP-1 and GLP-2 receptor activity is quantitation of cAMP, i.e. 3′-5′-cyclic adenosine monophosphate, which is a second messenger essential in many biological processes, and one of the most ubiquitous mechanisms for regulating cellular functions.
For subcloning into a mammalian expression vector, primers for subcloning were obtained from DNA-Technology, Risskov, Denmark. The 5′ and 3′ primers used for the PCR reaction include terminal restriction sites for cloning and the context of the 5′ primer is modified to a Kozak consensus without changing the sequence of the product encoded by the ORF. […] The generated PCR product was purified using GFX PCR and Gel band purification kit, digested with restriction enzymes and cloned into the mammalian expression vector using Rapid DNA Ligation Kit. Ligation reaction was transformed to XL10 Gold Ultracompetent cells and colonies were picked for DNA production using ENDOFREE® Plasmid maxi kit. Subsequent sequence analysis was conducted by MWG Eurofins, Germany.
HEK293 cells were transfected using the LIPOFECTAMINE® PLUS transfection method. The day before transfection, HEK293 cells were seeded in two T75 flasks at a density of 2×10^6 cells/T75 flask in cell culturing medium without antibiotics. On the day of transfection, cells were washed with 1× DPBS and medium was replaced with OPTI-MEM© to a volume of 5 mL/T75 flask before addition of LIPOFECTAMINE®-plasmid complexes were added gently and drop wise to the cells in T75 flasks and replaced with growth medium after 3 hours and again to growth medium supplemented with 500 μg/mL G418 after 24 hours. Following 4 weeks in G418 selection, clones were picked and tested in a functional GLP-2 receptor potency assay as described below.
The cAMP ALPHASCREEN® assay from Perkin Elmer was used to quantitate the cAMP response to activation of the GLP1 and GLP2 receptor, respectively. […] Data from test compounds eliciting an increase in the intracellular level of cAMP were normalized relative to the positive and negative control (vehicle) to calculate the EC50 and maximal response from the concentration response curve.
Background: Bead proximity is the source of the signal in Alpha formats.

Series [1] is described as follows: Chemical stability (RP-HPLC normalized purity after incubation at 40° C.). In kind it is physicochemical. Particulars: 14-day incubation, 0.2 mg/ml, normalized purity (area-%); for pH 7 normalized stability: pH 7, 40° C. The gist of the method:
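Peptide at 0.2 mg/ml final in water adjusted to pH 6, 7, 7.5 or 9, incubated at 40° C for 14 days. Purity measured as main-peak area-% by C18 RP-HPLC (acetonitrile/TFA/water gradient, UV 220 nm) and normalized to T=0 set at 100 for each pH.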

A short description of series [2]: Solubility assessment (turbidity absorbance at 325 nm). In kind it is physicochemical. A digest of the protocol: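 Peptide stock at 2 mg/ml in water at pH 2.5 diluted 1:1 into 100 mM acetate (pH 4.0, 5.0), histidine (pH 6.0, 7.0) or phosphate (pH 6.0, 7.0, 7.5) buffer. Absorbance at 280 and 325 nm read at ambient temperature (typically 25 °C), single samples (n=1).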

Where [3] appears, read: 100 mM acetate buffer pH 4.0, ambient temperature, read-out: Solubility Acetate buffer pH 4.
Where [4] appears, read: 100 mM acetate buffer pH 5.0, ambient temperature, read-out: Solubility Acetate buffer pH 5.
[5] abbreviates: 100 mM histidine buffer pH 6.0, ambient temperature, read-out: Solubility Histidine buffer pH 6.
The mark [6] stands for this setting: 100 mM histidine buffer pH 7.0, ambient temperature, read-out: Solubility Histidine buffer pH 7.
Setting [7] is: 100 mM phosphate buffer pH 6.0, ambient temperature, read-out: Solubility Phosphate buffer pH 6.
Setting [8] is: 100 mM phosphate buffer pH 7.0, ambient temperature, read-out: Solubility Phosphate buffer pH 7.
The mark [9] stands for this setting: 100 mM phosphate buffer pH 7.5, ambient temperature, read-out: Solubility Phosphate buffer pH 7.5.

By EC50 is commonly meant the concentration needed to bring the measured effect to its halfway point. `CC[C@H](C)[C@H](NC(=O)[C@H](Cc1ccccc1)NC(=O)[C@H](CC(=O)O)NC(=O)[C@H](CCCCNC(=O)COCCOCCNC(=O)COCCOCCNC(=O)[C@H](CCCCN)NC(=O)[C@H](CCC(=O)O)NC(=O)[C@H](CCCCN)NC(=O)CC[C@H](NC(=O)CCCCCCCCCCCCCCCCCCC(=O)O)C(=O)O)NC(=O)[C@H](C)NC(=O)[C@H](C)NC(=O)[C@H](CCC(N)=O)NC(=O)[C@H](CCC(=O)O)NC(=O)[C@H](CC(=O)O)NC(=O)[C@H](CC(C)C)NC(=O)[C@@H](NC(=O)[C@@H](NC(=O)[C@H](C)NC(=O)[C@H](CC(C)C)NC(=O)[C@H](CCC(=O)O)NC(=O)[C@H](CO)NC(=O)[C@@H](NC(=O)[C@H](Cc1ccccc1)NC(=O)[C@H](CO)NC(=O)CNC(=O)[C@H](CCC(=O)O)NC(=O)C(C)(C)NC(=O)[C@@H](N)Cc1c[nH]cn1)[C@@H](C)O)[C@@H](C)O)[C@@H](C)CC)C(=O)N[C@@H](C)C(=O)N[C@@H](Cc1c[nH]c2ccccc12)C(=O)N[C@@H](CC(C)C)C(=O)N[C@H](C(=O)N[C@@H](CCC(=O)O)C(=O)N[C@@H](Cc1c[nH]cn1)C(=O)N[C@@H](CCCCN)C(=O)N[C@H](C(=O)N[C@H](C(=O)N[C@@H](CC(=O)O)C(=O)O)[C@@H](C)O)[C@@H](C)CC)[C@@H](C)CC` [Compound 66] (H-H[Aib]EGSFTSELATILDEQAAK([AEEA-AEEA-Lys-Glu-Lys-γGlu-C20 diacid])DFIAWLIEHKITD-OH): the EC50 on human GLP-2 receptor was found to be 0.18 nM.
Turning to `CC[C@H](C)[C@H](NC(=O)[C@H](Cc1ccccc1)NC(=O)[C@H](CC(=O)O)NC(=O)[C@H](CCCNC(=N)N)NC(=O)[C@H](C)NC(=O)[C@H](C)NC(=O)[C@H](CCC(N)=O)NC(=O)[C@H](CCCCNC(=O)COCCOCCNC(=O)[C@H](CCCCN)NC(=O)[C@H](CCC(=O)O)NC(=O)[C@H](CCCCN)NC(=O)CC[C@H](NC(=O)CCCCCCCCCCCCCCCCCCC(=O)O)C(=O)O)NC(=O)[C@H](CC(=O)O)NC(=O)[C@H](CC(C)C)NC(=O)[C@@H](NC(=O)[C@@H](NC(=O)[C@H](C)NC(=O)[C@H](CC(C)C)NC(=O)[C@H](CCC(=O)O)NC(=O)[C@H](CO)NC(=O)[C@@H](NC(=O)[C@H](Cc1ccccc1)NC(=O)[C@H](CO)NC(=O)CNC(=O)[C@H](CCC(=O)O)NC(=O)C(C)(C)NC(=O)[C@@H](N)Cc1c[nH]cn1)[C@@H](C)O)[C@@H](C)O)[C@@H](C)CC)C(=O)N[C@@H](C)C(=O)N[C@@H](Cc1c[nH]c2ccccc12)C(=O)N[C@@H](CC(C)C)C(=O)N[C@H](C(=O)N[C@@H](CCC(=O)O)C(=O)N[C@@H](Cc1c[nH]cn1)C(=O)N[C@@H](CCCCN)C(=O)N[C@H](C(=O)N[C@H](C(=O)N[C@@H](CC(=O)O)C(=O)O)[C@@H](C)O)[C@@H](C)CC)[C@@H](C)CC` [Compound 57] (HELM PEPTIDE1{H.[Aib].E.G.S.F.T.S.E.L.A.T.I.L.D.K.Q.A.A.R.D.F.I.A.W.L.I.E.H.K.I.T.D}|PEPTIDE2{[O=C(O)CCCCCCCCCCCCCCCCCCC(=O)[*:2]].[gGlu].K.E.K.[O=C(COCCOCCN[*:1])[*:2]]}$PEPTIDE1,PEPTIDE2,16:R3-6:R2$$$V2.0), the EC50 at human GLP-2 receptor turned out to be 0.083 nM.
A word on the solubility: it is the concentration that dissolves in the medium under given conditions. On to `CC[C@H](C)[C@H](NC(=O)[C@H](Cc1ccccc1)NC(=O)[C@H](CC(=O)O)NC(=O)[C@H](CCCNC(=N)N)NC(=O)[C@H](C)NC(=O)[C@H](C)NC(=O)[C@H](CCC(N)=O)NC(=O)[C@H](CCCCNC(=O)CC[C@H](NC(=O)CCCCCCCCCCCCCCCCC(=O)O)C(=O)O)NC(=O)[C@H](CC(=O)O)NC(=O)[C@H](CC(C)C)NC(=O)[C@@H](NC(=O)[C@@H](NC(=O)[C@H](C)NC(=O)[C@H](CC(C)C)NC(=O)[C@H](CCC(=O)O)NC(=O)[C@H](CO)NC(=O)[C@@H](NC(=O)[C@H](Cc1ccccc1)NC(=O)[C@@H](NC(=O)CNC(=O)[C@H](CCC(=O)O)NC(=O)C(C)(C)NC(=O)[C@@H](N)Cc1c[nH]cn1)[C@@H](C)O)[C@@H](C)O)[C@@H](C)O)[C@@H](C)CC)C(=O)N[C@@H](C)C(=O)N[C@@H](Cc1c[nH]c2ccccc12)C(=O)N[C@@H](CC(C)C)C(=O)N[C@H](C(=O)N[C@@H](CCC(N)=O)C(=O)N[C@@H](Cc1c[nH]cn1)C(=O)N[C@@H](CCCCN)C(=O)N[C@H](C(=O)N[C@H](C(=O)N[C@@H](CC(=O)O)C(=O)O)[C@@H](C)O)[C@@H](C)CC)[C@@H](C)CC` [Compound 19] (HELM PEPTIDE1{H.[Aib].E.G.T.F.T.S.E.L.A.T.I.L.D.K.Q.A.A.R.D.F.I.A.W.L.I.Q.H.K.I.T.D}|PEPTIDE2{[O=C(O)CCCCCCCCCCCCCCCCC(=O)[*:2]].[gGlu]}$PEPTIDE1,PEPTIDE2,16:R3-2:R2$$$V2.0), for which, in series [1] (pH 6, 40° C.), the “pH 6 normalized stability” value was “A (>90% normalised stability)”. Further, the “pH 7 normalized stability” value in series [1] is listed as “A (>90% normalised stability)”. Besides, the solubility in series [2] (setting [3]) is under 1000 µg/mL; in series [2] (setting [4]), under 1000 µg/mL; in series [2] (setting [5]) it was at least 1000 µg/mL; in series [2] (setting [6]), at least 1000 µg/mL; in series [2] (setting [7]), at least 1000 µg/mL; in series [2] (setting [8]), at least 1000 µg/mL. Further, in series [2] (setting [9]), the solubility was at least 1000 µg/mL.
Regarding `CC[C@H](C)[C@H](NC(=O)[C@H](Cc1ccccc1)NC(=O)[C@H](CC(=O)O)NC(=O)[C@H](CCCNC(=N)N)NC(=O)[C@H](C)NC(=O)[C@H](C)NC(=O)[C@H](CCC(N)=O)NC(=O)[C@H](CCCCNC(=O)CC[C@H](NC(=O)CCCCCCCCCCCCCCCCC(=O)O)C(=O)O)NC(=O)[C@H](CC(=O)O)NC(=O)[C@H](CC(C)C)NC(=O)[C@@H](NC(=O)[C@@H](NC(=O)[C@H](C)NC(=O)[C@H](CC(C)C)NC(=O)[C@H](CCC(=O)O)NC(=O)[C@H](CO)NC(=O)[C@@H](NC(=O)[C@H](Cc1ccccc1)NC(=O)[C@H](CO)NC(=O)CNC(=O)[C@H](CCC(=O)O)NC(=O)C(C)(C)NC(=O)[C@@H](N)Cc1c[nH]cn1)[C@@H](C)O)[C@@H](C)O)[C@@H](C)CC)C(=O)N[C@@H](C)C(=O)N[C@@H](Cc1c[nH]c2ccccc12)C(=O)N[C@@H](CC(C)C)C(=O)N[C@H](C(=O)N[C@@H](Cc1c[nH]cn1)C(=O)N[C@@H](Cc1c[nH]cn1)C(=O)N[C@@H](CCCCN)C(=O)N[C@H](C(=O)N[C@H](C(=O)N[C@@H](CC(=O)O)C(=O)O)[C@@H](C)O)[C@@H](C)CC)[C@@H](C)CC` [Compound 26] (HELM PEPTIDE1{H.[Aib].E.G.S.F.T.S.E.L.A.T.I.L.D.K.Q.A.A.R.D.F.I.A.W.L.I.H.H.K.I.T.D}|PEPTIDE2{[O=C(O)CCCCCCCCCCCCCCCCC(=O)[*:2]].[gGlu]}$PEPTIDE1,PEPTIDE2,16:R3-2:R2$$$V2.0), the “pH 7 normalized stability” value in series [1] was “A (>90% normalised stability)”. The solubility is at least 1000 µg/mL in series [2] (setting [3]); under 1000 µg/mL in series [2] (setting [4]); under 1000 µg/mL in series [2] (setting [5]); at least 1000 µg/mL in series [2] (setting [6]); under 1000 µg/mL in series [2] (setting [7]); at least 1000 µg/mL in series [2] (setting [8]). In addition, the solubility in series [2] (setting [9]) was at least 1000 µg/mL.
